Experimental data reported in US11433053B2, “LSD1 inhibitor and preparation method and application thereof” (CSPC ZHONGQI PHARMACEUTICAL TECHNOLOGY (SHIJIAZHUANG) CO., …, priority 2017, dated 2022).

Experiments:
human LSD1 = human LSD1 (Homo sapiens (Human), UniProt O60341); assay: Evaluation of enzyme activity: LSD1 fluorescence coupling enzyme assay (HRP/Amplex Red); assay type: biochemical; details: human LSD1, histone H3(1-21)K4me2 peptide 10 μM, 30 min pre-incubation
Procedure: The purpose of this test is to test the in vitro inhibitory activities of the compounds against LSD1. The enzyme used in this experiment was human LSD1, and the standard substrate was histone H3(1-21)K4me2 peptide (10 μM). HCI-2509 (SP2509) was used as reference compound, and the fluorescence coupling enzyme assay was employed. The production of FAD-dependent H2O2 as a result of demethylase activity of LSD1 was measured by coupling with HRP and Amplex Red. Compounds as well as control compound HCl-2509 were tested in 10-dose IC50 mode with a 3-fold serial dilution in duplicate starting at 10 μm. All compounds were pre-incubated 30 mins with enzyme before added substrate to start reaction. Fluorescence measurement: Ex/Em=535/590 by EnVision.
The test compound's inhibitory activities against LSD11 was classified as: + for IC50≤50 nM; ++ for IC50>50 nM and ≤100 nM; +++ for IC50>100 nM and ≤500 nM, and the results are shown in Table 1.

H1417 cells = assay: Cell proliferation inhibitory activity on H1417 cells (CellTiter-Glo, 10 days); assay type: cell-based, human; details: Homo sapiens; for IC50: NCI-H1417, 240 h, H1417 cells, 10 days incubation; for Emax: NCI-H1417, H1417 cells, highest percentage inhibition of cell viability, read-out: Maximum inhibition percentage (%)
Procedure: Experimental purposes: To test the proliferation inhibitory activities of the test compounds on H1417 cells.
Experimental materials: RPMI 1640 medium, fetal bovine serum, Promega CellTiter-Glo reagent. The H1417 cell line purchased from ATCC. Envision Multi-Label Analyzer (PerkinElmer).
Experimental method: H1417 cells were seeded in a black 384-well plate, 1000 cells per well in […] of cell suspension. The test compounds were diluted 3-fold with Epmotion to the 10th concentration i.e, the compounds were diluted from 10 mmol to […], and a double duplicate well experiment was set. 198 μL medium was added to the middle plate, according to the corresponding position, 2 μL gradient diluted compounds were added to the middle plate. The mixture was mixed evenly and transferred 20 μL per well to the cell plates. The cell plates were incubated in a carbon dioxide incubator for 10 days. 25 μL of Promega CellTiter-Glo reagent per well was added to the cell plate and the mixture was incubated for 10 minutes at room temperature to stabilize the luminescence signal. Readings were performed by PerkinElmer Envision multi-label analyzer.
Data analysis: The original data was converted to the inhibition rate by the equation (Max-Ratio)/(Max-Min)*100%, and the value of IC50 can be obtained by curve fitting with four parameters. (Model 205 in XLFIT5, iDBS)
The growth inhibitory activities of the test compounds on H1417 cells were classified as + for IC50≤100 nM; ++ for IC50>100 nM and ≤500 nM; +++ for IC50>500 nM and ≤1000 nM; the highest percentage inhibition of cell viability was classified as: […]; 90%>B≥70%; 70%>C≥50%.

Row | Structure (SMILES) | IC50 (human LSD1) | IC50 (H1417 cells) | Emax (H1417 cells)
1 | CN(C)CC1(CN[C@H]2C[C@@H]2c2ccccc2)CC1 [Example 5] | 50 to 100 nM | – | –
2 | CCN(CC)CC1(CN[C@H]2CC2c2ccccc2)CC1 (stereo partly shown) [Example 7] | 100 to 500 nM | – | –
3 | Fc1ccccc1CNCC1(CN[C@H]2CC2c2ccccc2)CC1 (stereo partly shown) [Example 10] | ≤ 50 nM | – | –
4 | c1ccc(C2C[C@@H]2NCC2(CNCc3ccc[nH]3)CC2)cc1 (stereo partly shown) [Example 11] | ≤ 50 nM | – | –
5 | c1ccc([C@H]2C[C@@H]2NCC2(CNCc3cnc[nH]3)CC2)cc1 [Example 12] | 50 to 100 nM | – | –
6 | c1ccc(C2C[C@@H]2NCC2(CNCC3CCNC3)CC2)cc1 (stereo partly shown) [Example 13] | ≤ 50 nM | – | –
7 | CCn1ncnc1CNCC1(CN[C@H]2C[C@@H]2c2ccccc2)CC1 [Example 14] | 100 to 500 nM | – | –
8 | FC(F)(F)c1ccc(CNCC2(CN[C@H]3C[C@@H]3c3ccccc3)CC2)cn1 [Example 15] | 50 to 100 nM | – | –
9 | c1ccc([C@H]2C[C@@H]2NCC2(CNCc3nccs3)CC2)cc1 [Example 16] | 100 to 500 nM | – | –
10 | c1ccc([C@H]2C[C@@H]2NCC2(CNCc3cnc4n3CCC4)CC2)cc1 [Example 17] | 50 to 100 nM | – | –
11 | N#Cc1ccc(CNC2(CN[C@H]3CC3c3ccccc3)CCC2)cc1 (stereo partly shown) [Example 48] | ≤ 50 nM | – | –
12 | c1ccc(C2C[C@@H]2NCC2(CN3CCc4ccncc4C3)CC2)cc1 (stereo partly shown) [Example 49] | – | 500 to 1000 nM | 90 to 100%
13 | FC(F)(F)c1ccc2c(c1)CN(CC1(CN[C@H]3CC3c3ccccc3)CC1)CC2 (stereo partly shown) [Example 51] | – | 100 to 500 nM | 70 to 90%
14 | O=C(O)c1ccc2c(c1)CN(CC1(CN[C@H]3CC3c3ccccc3)CC1)CC2 (stereo partly shown) [Example 53] | – | 500 to 1000 nM | 90 to 100%
15 | O=C(O)C1CCN(CC2(CN[C@H]3CC3c3ccccc3)CC2)CC1 (stereo partly shown) [Example 54] | – | 500 to 1000 nM | 50 to 70%
16 | FC(F)(F)c1ccc2c(c1)CN(CC1(CN[C@H]3CC3c3ccccc3)CC1)C2 (stereo partly shown) [Example 55] | – | 100 to 500 nM | 70 to 90%
17 | O=C(O)c1ccc(C2CCN(CC3(CN[C@H]4CC4c4ccccc4)CC3)CC2)cc1 (stereo partly shown) [Example 56] | – | 500 to 1000 nM | 50 to 70%
18 | c1ccc(C2C[C@@H]2NCC2(CN3CCc4ccccc4CC3)CC2)cc1 (stereo partly shown) [Example 58] | – | 100 to 500 nM | 70 to 90%
19 | c1ccc(C2C[C@@H]2NCC2(CN3CCCCc4ccccc43)CC2)cc1 (stereo partly shown) [Example 60] | – | 500 to 1000 nM | 50 to 70%
20 | c1ccc(C2C[C@@H]2NCC2(CN3Cc4ccncc4C3)CC2)cc1 (stereo partly shown) [Example 61] | – | 500 to 1000 nM | 50 to 70%

Row | Structure (SMILES) | IC50 (human LSD1) | IC50 (H1417 cells) | Emax (H1417 cells)
21 | c1ccc(C2C[C@@H]2NCC2(c3noc4ccccc34)CCC2)cc1 (stereo partly shown) [Example 72] | ≤ 50 nM | – | –
22 | c1ccc(C2C[C@@H]2NCC2(CN3CCCC3)CC2)cc1 (stereo partly shown) [Example 77] | – | ≤ 100 nM | 70 to 90%
23 | FC(F)(F)C1CCN(CC2(CN[C@H]3CC3c3ccccc3)CC2)CC1 (stereo partly shown) [Example 80] | – | 100 to 500 nM | 50 to 70%
24 | N#CC1CCN(CC2(CN[C@H]3CC3c3ccccc3)CC2)CC1 (stereo partly shown) [Example 81] | – | ≤ 100 nM | 50 to 70%
25 | FC1CC(CN[C@H]2CC2c2ccccc2)(c2cccnc2)C1 (stereo partly shown) [Example 85] | ≤ 50 nM | – | –
26 | OC1CC(CN[C@H]2CC2c2ccccc2)(c2cccnc2)C1 (stereo partly shown) [Example 86] | ≤ 50 nM | – | –
27 | COc1ccccc1-c1nc(C2(CN[C@H]3CC3c3ccccc3)CCC2)no1 (stereo partly shown) [Example 90] | ≤ 50 nM | – | –
28 | N#Cc1ccccc1-c1nc(C2(CN[C@H]3CC3c3ccccc3)CCC2)no1 (stereo partly shown) [Example 91] | ≤ 50 nM | – | –
29 | N#Cc1cccc(-c2nc(C3(CN[C@H]4CC4c4ccccc4)CCC3)no2)c1 (stereo partly shown) [Example 92] | ≤ 50 nM | – | –
30 | Clc1ccc(-n2cc(C3(CN[C@H]4CC4c4ccccc4)CC3)nn2)cc1 (stereo partly shown) [Example 96] | – | 500 to 1000 nM | 50 to 70%
31 | N#Cc1ccc(C(=O)NC2(CN[C@H]3CC3c3ccccc3)CCC2)cc1 (stereo partly shown) [Example 97] | ≤ 50 nM | – | –
32 | CC1CCN(CC2(CN[C@H]3CC3c3ccccc3)CC2)C1 (stereo partly shown) [Example 98] | – | 100 to 500 nM | 50 to 70%
33 | CC1CCN(CC2(CN[C@H]3C[C@@H]3c3ccccc3)CC2)C1 (stereo partly shown) [Example 98] | 50 to 100 nM | – | –
34 | O=C(O)c1ccc2c(c1)CN(CC1(CN[C@H]3C[C@@H]3c3ccccc3)CC1)C2 [Example 99] | 100 to 500 nM | – | –
35 | O=C(O)c1ccc2c(c1)CCN(CC1(CN[C@H]3CC3c3ccccc3)CC1)C2 (stereo partly shown) [Example 101] | – | 500 to 1000 nM | 50 to 70%
36 | CS(=O)(=O)n1cc2c(n1)CN(CC1(CN[C@H]3CC3c3ccccc3)CC1)C2 (stereo partly shown) [Example 106] | – | 500 to 1000 nM | 50 to 70%
37 | CS(=O)(=O)n1cc2c(n1)CN(CC1(CN[C@H]3C[C@@H]3c3ccccc3)CC1)C2 [Example 106] | 100 to 500 nM | – | –
38 | CC1(C)CCN(CC2(CN[C@H]3CC3c3ccccc3)CC2)C1 (stereo partly shown) [Example 202] | – | 100 to 500 nM | 70 to 90%
39 | c1ccc(C2C[C@@H]2NCC2(CN3CCC3)CC2)cc1 (stereo partly shown) [Example 211] | – | 100 to 500 nM | 50 to 70%
40 | C[C@H]1CCCN1CC1(CN[C@H]2CC2c2ccccc2)CC1 (stereo partly shown) [Example 212] | – | 100 to 500 nM | 50 to 70%

The next lines start with results.

Row | IC50 (human LSD1) | IC50 (H1417 cells) | Structure (SMILES) | Emax (H1417 cells)
41 | 100 to 500 nM | – | COC(=O)c1ccc(CN2CCC(c3nc(C4(CN[C@H]5CC5c5ccccc5)CC4)no3)CC2)cc1 (single isomer, unassigned) [Example 165] | –
42 | 50 to 100 nM | – | CC(C)(C)n1nnc(C2(CN[C@H]3C[C@@H]3c3ccccc3)CC2)n1 [Example 3] | –
43 | ≤ 50 nM | – | Clc1ccc2nc(C3(CN[C@H]4CC4c4ccccc4)CC3)oc2c1 (stereo partly shown) [Example 46] | –
44 | – | 100 to 500 nM | Clc1ccc2oc(C3(CN[C@H]4CC4c4ccccc4)CC3)nc2c1 (stereo partly shown) [Example 47] | 50 to 70%
45 | 50 to 100 nM | – | Clc1ccc2oc(C3(CN[C@H]4C[C@@H]4c4ccccc4)CC3)nc2c1 [Example 47] | –
46 | ≤ 50 nM | – | Fc1ccc(-c2nc(C3(CN[C@H]4CC4c4ccccc4)CC3)no2)cc1 (stereo partly shown) [Example 63] | –
47 | – | 100 to 500 nM | O=C(O)C1CCC(c2nc(C3(CN[C@H]4CC4c4ccccc4)CC3)no2)CC1 (stereo partly shown) [Example 67] | 50 to 70%
48 | ≤ 50 nM | – | c1ccc(C2C[C@@H]2NCC2(c3noc4ccccc34)CC2)cc1 (stereo partly shown) [Example 71] | –
49 | – | 100 to 500 nM | c1ccc(C2C[C@@H]2NCC2(c3nc4ccccc4o3)CC2)cc1 (stereo partly shown) [Example 76] | 50 to 70%
50 | 50 to 100 nM | – | c1ccc([C@H]2C[C@@H]2NCC2(c3nc4ccccc4o3)CC2)cc1 [Example 76] | –
51 | – | 100 to 500 nM | O=C(O)c1ccc(CN2CCC(c3nc(C4(CN[C@H]5CC5c5ccccc5)CC4)no3)CC2)cc1 (stereo partly shown) [Example 82] | 50 to 70%
52 | 100 to 500 nM | – | O=C(O)c1ccc(NCC2(CN[C@H]3C[C@@H]3c3ccccc3)CCC2)nc1 [Example 84] | –
53 | ≤ 50 nM | – | FC1(F)Oc2ccc(-c3nc(C4(CN[C@H]5CC5c5ccccc5)CCC4)no3)cc2O1 (stereo partly shown) [Example 93] | –
54 | ≤ 50 nM | – | COc1ccc2nc(-c3nc(C4(CN[C@H]5CC5c5ccccc5)CCC4)no3)sc2c1 (stereo partly shown) [Example 94] | –
55 | 100 to 500 nM | – | O=C(O)c1ccc(-c2nc(C3(CN[C@H]4CC4c4ccccc4)CC3)no2)cn1 (stereo partly shown) [Example 102] | –
56 | – | 500 to 1000 nM | O=C(O)c1ccc(N2CCC(c3nc(C4(CN[C@H]5CC5c5ccccc5)CC4)no3)CC2)cc1 (stereo partly shown) [Example 103] | 50 to 70%
57 | 100 to 500 nM | – | O=C(O)c1ccc(N2CCC(c3nc(C4(CN[C@H]5C[C@@H]5c5ccccc5)CC4)no3)CC2)cc1 [Example 103] | –
58 | ≤ 50 nM | – | O=C(O)c1ccc(N2CCC(c3nc(C4(CN[C@H]5CC5c5ccccc5)CC4)no3)CC2)cn1 (stereo partly shown) [Example 104] | –
59 | – | 100 to 500 nM | CC(=O)N1CCC(c2nc(C3(CN[C@H]4CC4c4ccccc4)CC3)no2)CC1 (stereo partly shown) [Example 105] | 70 to 90%
60 | 50 to 100 nM | – | CC(=O)N1CCC(c2nc(C3(CN[C@H]4C[C@@H]4c4ccccc4)CC3)no2)CC1 [Example 105] | –
61 | 100 to 500 nM | – | O=C(O)c1ccc(C(=O)N2CCC(c3nc(C4(CN[C@H]5C[C@@H]5c5ccccc5)CC4)no3)CC2)cc1 [Example 107] | –
62 | – | 500 to 1000 nM | CN(C)[C@H]1CC[C@H](c2nc(C3(CN[C@H]4CC4c4ccccc4)CC3)no2)CC1 (stereo partly shown) [Example 108] | 70 to 90%
63 | 100 to 500 nM | – | CN(C)[C@H]1CC[C@H](c2nc(C3(CN[C@H]4C[C@@H]4c4ccccc4)CC3)no2)CC1 [Example 108] | –
64 | – | 100 to 500 nM | CN1CCC(c2nc(C3(CN[C@H]4CC4c4ccccc4)CC3)no2)CC1=O (stereo partly shown) [Example 218] | 70 to 90%
